# From US20170045513A1, “METHODS OF DIAGNOSING CELIAC DISEASE USING IP-10” (ImmusanT, Inc., priority 2014, published 2017)
# Non-standard residues stand in square brackets, D forms with d. pGlu = O=C1CC[C@@H](C(=O)O)N1
# Assays:
# Format in all cases: cell-based, human
# gluten-reactive T cells [1] = experiment: 96-well plate whole blood cytokine release, IFNγ by MAGPIX multiplex bead assay; details: for Percent of maximal response to individual gluten peptides, IFNg: after oral gluten challenge; for IFNγ WB MAGPIX % max Mean: n = 8, blood after oral gluten challenge, individual peptides 5 μM (Peptide 2* of P14, Pepscan: 10 μg/mL (5.45 μM))
# gluten-reactive T cells [2] = experiment: 96-well plate whole blood cytokine release, IP-10 by MAGPIX multiplex bead assay; details: for Percent of maximal response to individual gluten peptides, IP-10: after oral gluten challenge; for IP-10 WB MAGPIX % max Mean: n = 10, blood after oral gluten challenge, individual peptides 5 μM (Peptide 2* of P14, Pepscan: 10 μg/mL (5.45 μM))
# gluten-reactive T cells [3] = experiment: Overnight IFNγ ELISpot assay with fresh PBMC; details: for Percent of maximal response to individual gluten peptides, ELISp: after oral gluten challenge; for IFNγ ELISpot % max Mean: n = 5, blood after oral gluten challenge, individual peptides 5 μM (Peptide 2* of P14, Pepscan: 10 μg/mL (5.45 μM))
# Description: HLA-DQ2.5-positive celiac disease subjects on gluten-free diet were used in this study. Blood was collected immediately before and 6 days after commencing 3-day oral gluten challenge. Whole blood or PBMCs were incubated with pools or single peptides derived from gluten or recall antigens. IFNγ and IP-10 levels were measured in plasma from the whole blood that was incubated in 96-well plates with peptides or peptide pools. Plasma cytokine/chemokine levels were measured by MAGPIX® multiplex bead assay (IFNγ and IP-10) or by ELISA (IFNγ and IP-10), and PBMC separated from the same blood sample were incubated in overnight IFNγ ELISpot assays.
# Overnight IFNγ ELISpot assays (Human IFN-γ ELISpotPRO kit, transparent, ALP; Mabtech AB, #3420-2APT-10) were performed using PBMC freshly separated from heparinized blood diluted 1:1 in PBS with 2% fetal bovine serum (Stemcell Technologies #07905; Vancouver, BC, V5Z 1B3, Canada) overlaid on density gradient medium (Ficoll-Paque™ PLUS; GE Healthcare Lice Sciences #:17-1440-02) in SepMate™-50 tubes (Stemcell Technologies #15460). PBMC (8 million/mL) were resuspended in serum-free medium with gentamicin and phenol red (X-VIVO™15; Lonza, Walkersville Mass. 21793). PBMC (0.4 million/50 pt/well) and incubated with 50 μL 80% X-vivo15, 0.2% DMSO and 20% PBS in three triplicate wells (“medium only”), or with 50 μL PHA-L 20 μg/ml or peptide at 2× final concentration in 80% X-vivo15, 0.2% DMSO and 20% PBS. Peptide solutions to be added to individual ELISpot wells were prepared in 96-well U-bottom plates (60 pt/well) that were then sealed with adhesive ELISA plate cover slips before replacing the plastic lid and being frozen at −80° C. 96-well plates containing peptide solutions were thawed at room temperature for 10 min while being centrifuged at 300 g immediately prior to being added to ELISpot wells. Peptide pools and mitogen were assessed in triplicate wells, and individual peptides were assessed in duplicate wells. X-VIVO™15 (50 μL) was incubated with 80% X-vivo15, 0.2% DMSO and 20% PBS (50 μL) in triplicate wells (“no PBMC” control). A Zeiss automated ELISpot counter was used to determine spot forming units (SFU) per well (Zellnet Inc., Fort Lee, N J 07024). Laboratory staff were unaware of the arrangement of peptide solutions in ELISpot wells during assay setup and plate counting.
# gluten-reactive T cells [4] = experiment: Cytokine release assays taken together (IFNγ ELISpot, whole blood IFNγ and IP-10, in-tube IFNγ ELISA); details: HLA-DQ2.5+ celiac disease subjects after gluten challenge
# Description: Gluten peptide solutions for addition to whole blood were arranged according to standardized templates in sterile 96-well U-bottom plates (30 μL/well). Plates were sealed with adhesive ELISA plate cover slips before the plastic lid was replaced and being frozen at −80° C. Whole blood assay (WBA) “medium” (1% DMSO in 90% PBS and 9% normal saline), mitogen (PHA-L, Sigma-Aldrich #L2769; St Louis Mo.) 100 μg/ml in WBA medium, and CEF diluted to 10 μg/ml in PBS with a final concentration of 1% DMSO were frozen separately in sterile cryovials. 96-well plates and cryovials with frozen incubation solutions were shipped on dry ice to the clinical site where blood was collected and incubations performed. Solutions were thawed at room temperature for 10 min just before being added to whole blood. 96-well plates were thawed while being centrifuged at 300 g to avoid surface condensation. A multi-channel pipette was used to efficiently transfer 25 μL of peptide solutions from the original 96-well plate to corresponding wells in a fresh sterile 96-well U-bottom plate. Once incubation solutions had been added, 225 μL of whole blood was added to each well and the plate transferred to incubate for 24 h at 37° C. 5% CO2. […] Individual peptides were incubated at a final assay concentration of 51.1M. Final concentrations of individual peptides assessed in P3 was 0.05-50 μg/mL, and in P14 and P13 pools 0.025-25 μM. The P71 pool was tested at between 0.005-10 pg/mL, the highest tested concentration being the maximal possible not exceeding 0.1% DMSO. Peptide pools, mitogen, and medium only were assessed in triplicate wells, and on Day-6 individual peptides were assessed in duplicate wells. Incubations were terminated after 24 h, and 96-well plates centrifuged at 300 g for 10 min. A total of approximately 90 to 120 μL of plasma was removed from each well taking care to avoid red cell contamination, and transferred into corresponding wells of two further 96-well plates (one with 30 μL/well and the residual in the second plate). Plasmas were frozen at −80° C. and later shipped on dry ice to the central lab where IP-10 and IFNγ multiplex bead assays were performed according to manufacturer's instructions using 25 μL plasma per well (Milliplex® MAP Human Cytokine/Chemokine Magnetic Bead Panel #HCYTOMAG-60k-02; EMD Millipore Corp., Billerica, Mass. 01821) and analysed with the Luminex® MAGPIX® System xPONENT® software (Luminex Corporation, Austin Tex. 78727). Plasma cytokine levels for each assay condition were expressed as the mean analyte concentration of each of the three replicate incubations. Laboratory staff were unaware of the arrangement of peptide solutions incubated with during assay setup and plate counting.
# Aliquots of PBS, P3 peptides diluted in PBS (final concentration in blood 3× 50 or CEF to a final concentration 1 μg/mL were prepared in sterile cryovials (0.11 mL/vial) and stored frozen (−80° C.) until immediately before use. P3, CEF and two PBS aliquots were drawn up in separate sterile 0.3 mL insulin syringes with attached 29G×½″ needle (Terumo, SS*30M2913; Elkton Md. 21921). P3, CEF and one PBS aliquot was injected through the stoppers of three separate QuantiFERON® NIL tubes already containing 1 mL blood, and one aliquot of PBS was injected into a QuantiFERON® MITOGEN tube already containing 1 mL blood. All four tubes containing blood and incubation solution were gently inverted ten-times and transferred to incubate at 37° C. 5% CO2. After for 24 h, tubes were centrifuged 300 g 10 min. Plasma was separated and equal volumes placed in two 1.5 mL cryovials. Frozen plasmas were transferred to the central lab where IFNγ levels were measured in triplicate 50 μL samples by ELISA (MABtech Human IFN-γ ELISA development kit HRP, 3420-1H-6; capture mAb 1-D1K). […]
Substance,"Percent of maximal response to individual gluten peptides, IFNg (gluten-reactive T cells [1]; Subject 2, Max. 116 pg/mL)","Percent of maximal response to individual gluten peptides, IFNg (gluten-reactive T cells [1]; Subject 3, Max. 799 pg/mL)","Percent of maximal response to individual gluten peptides, IFNg (gluten-reactive T cells [1]; Subject 4, Max. 136 pg/mL)","Percent of maximal response to individual gluten peptides, IFNg (gluten-reactive T cells [1]; Subject 6, Max. 72 pg/mL)","Percent of maximal response to individual gluten peptides, IFNg (gluten-reactive T cells [1]; Subject 7, Max. 17 pg/mL)","Percent of maximal response to individual gluten peptides, IFNg (gluten-reactive T cells [1]; Subject 8, Max. 47 pg/mL)","Percent of maximal response to individual gluten peptides, IFNg (gluten-reactive T cells [1]; Subject 9, Max. 67 pg/mL)","Percent of maximal response to individual gluten peptides, IFNg (gluten-reactive T cells [1]; Subject 10, Max. 229 pg/mL)",IFNγ WB MAGPIX % max Mean (gluten-reactive T cells [1]),"Percent of maximal response to individual gluten peptides, IP-10 (gluten-reactive T cells [2]; Subject 1, Max. 2331 pg/mL)","Percent of maximal response to individual gluten peptides, IP-10 (gluten-reactive T cells [2]; Subject 2, Max. 3646 pg/mL)","Percent of maximal response to individual gluten peptides, IP-10 (gluten-reactive T cells [2]; Subject 3, Max. 9492 pg/mL)","Percent of maximal response to individual gluten peptides, IP-10 (gluten-reactive T cells [2]; Subject 4, Max. 9463 pg/mL)","Percent of maximal response to individual gluten peptides, IP-10 (gluten-reactive T cells [2]; Subject 6, Max. 5863 pg/mL)","Percent of maximal response to individual gluten peptides, IP-10 (gluten-reactive T cells [2]; Subject 7, Max. 2330 pg/mL)","Percent of maximal response to individual gluten peptides, IP-10 (gluten-reactive T cells [2]; Subject 10, Max. 8922 pg/mL)",IP-10 WB MAGPIX % max Mean (gluten-reactive T cells [2]),"Percent of maximal response to individual gluten peptides, ELISp (gluten-reactive T cells [3]; Subject 3, Max. 18 SFU)","Percent of maximal response to individual gluten peptides, ELISp (gluten-reactive T cells [3]; Subject 4, Max. 36 SFU)","Percent of maximal response to individual gluten peptides, ELISp (gluten-reactive T cells [3]; Subject 8, Max. 17 SFU)",also measured
(pE)GQQGYYPTSPQQSG-amide ([pGlu]GQQGYYPTSPQQSG-NH2; SMILES C[C@@H](O)[C@H](NC(=O)[C@@H]1CCCN1C(=O)[C@H](Cc1ccc(O)cc1)NC(=O)[C@H](Cc1ccc(O)cc1)NC(=O)CNC(=O)[C@H](CCC(N)=O)NC(=O)[C@H](CCC(N)=O)NC(=O)CNC(=O)[C@@H]1CCC(=O)N1)C(=O)N[C@@H](CO)C(=O)N1CCC[C@H]1C(=O)N[C@@H](CCC(N)=O)C(=O)N[C@@H](CCC(N)=O)C(=O)N[C@@H](CO)C(=O)NCC(N)=O) [Peptide 10],23 % of max,0 % of max,0 % of max,0 % of max,0 % of max,0 % of max,0 % of max,9 % of max,4 % max,0 % of max,0 % of max,0 % of max,0 % of max,0 % of max,0 % of max,9 % of max,1 % max,17 % of max,3 % of max,0 % of max,"Percent of maximal response to individual gluten peptides, ELISp (gluten-reactive T cells [3]; Subject 10, Max. 11 SFU): 9 % of max; IFNγ ELISpot % max Mean (gluten-reactive T cells [3]): 8 % max; cytokine release / immunogenicity of individual peptide (gluten-reactive T cells [4]): weak or not distinguishable from medium alone"
(pE)QPFPEQPEQIIPQQP-amide ([pGlu]QPFPEQPEQIIPQQP-NH2; SMILES CC[C@H](C)[C@H](NC(=O)[C@H](CCC(N)=O)NC(=O)[C@H](CCC(=O)O)NC(=O)[C@@H]1CCCN1C(=O)[C@H](CCC(N)=O)NC(=O)[C@H](CCC(=O)O)NC(=O)[C@@H]1CCCN1C(=O)[C@H](Cc1ccccc1)NC(=O)[C@@H]1CCCN1C(=O)[C@H](CCC(N)=O)NC(=O)[C@@H]1CCC(=O)N1)C(=O)N[C@H](C(=O)N1CCC[C@H]1C(=O)N[C@@H](CCC(N)=O)C(=O)N[C@@H](CCC(N)=O)C(=O)N1CCC[C@H]1C(N)=O)[C@@H](C)CC) [Peptide 12],13 % of max,0 % of max,0 % of max,0 % of max,0 % of max,0 % of max,0 % of max,1 % of max,2 % max,11 % of max,3 % of max,9 % of max,5 % of max,0 % of max,0 % of max,0 % of max,3 % max,6 % of max,0 % of max,6 % of max,"Percent of maximal response to individual gluten peptides, IP-10 (gluten-reactive T cells [2]; Subject 5, Max. 9336 pg/mL): 4 % of max; Percent of maximal response to individual gluten peptides, IP-10 (gluten-reactive T cells [2]; Subject 8, Max. 4019 pg/mL): 0 % of max; Percent of maximal response to individual gluten peptides, IP-10 (gluten-reactive T cells [2]; Subject 9, Max. 8349 pg/mL): 1 % of max; Percent of maximal response to individual gluten peptides, ELISp (gluten-reactive T cells [3]; Subject 10, Max. 11 SFU): 0 % of max; IFNγ ELISpot % max Mean (gluten-reactive T cells [3]): 3 % max; cytokine release / immunogenicity of individual peptide (gluten-reactive T cells [4]): weak or absent"
